Measured values reported in patent US10168342B2, “Lipid probes and uses thereof” (THE SCRIPPS RESEARCH INSTITUTE, priority 2015, dated 2019).
Read-outs that look alike come from different tables or passages of the source.

Experiments:
[1] = molecular target: T1, AEA-DA lipid probe targets in Neuro2a cells (Mus musculus, UniProt G5E829)
T1 sequence (G5E829 1-1220): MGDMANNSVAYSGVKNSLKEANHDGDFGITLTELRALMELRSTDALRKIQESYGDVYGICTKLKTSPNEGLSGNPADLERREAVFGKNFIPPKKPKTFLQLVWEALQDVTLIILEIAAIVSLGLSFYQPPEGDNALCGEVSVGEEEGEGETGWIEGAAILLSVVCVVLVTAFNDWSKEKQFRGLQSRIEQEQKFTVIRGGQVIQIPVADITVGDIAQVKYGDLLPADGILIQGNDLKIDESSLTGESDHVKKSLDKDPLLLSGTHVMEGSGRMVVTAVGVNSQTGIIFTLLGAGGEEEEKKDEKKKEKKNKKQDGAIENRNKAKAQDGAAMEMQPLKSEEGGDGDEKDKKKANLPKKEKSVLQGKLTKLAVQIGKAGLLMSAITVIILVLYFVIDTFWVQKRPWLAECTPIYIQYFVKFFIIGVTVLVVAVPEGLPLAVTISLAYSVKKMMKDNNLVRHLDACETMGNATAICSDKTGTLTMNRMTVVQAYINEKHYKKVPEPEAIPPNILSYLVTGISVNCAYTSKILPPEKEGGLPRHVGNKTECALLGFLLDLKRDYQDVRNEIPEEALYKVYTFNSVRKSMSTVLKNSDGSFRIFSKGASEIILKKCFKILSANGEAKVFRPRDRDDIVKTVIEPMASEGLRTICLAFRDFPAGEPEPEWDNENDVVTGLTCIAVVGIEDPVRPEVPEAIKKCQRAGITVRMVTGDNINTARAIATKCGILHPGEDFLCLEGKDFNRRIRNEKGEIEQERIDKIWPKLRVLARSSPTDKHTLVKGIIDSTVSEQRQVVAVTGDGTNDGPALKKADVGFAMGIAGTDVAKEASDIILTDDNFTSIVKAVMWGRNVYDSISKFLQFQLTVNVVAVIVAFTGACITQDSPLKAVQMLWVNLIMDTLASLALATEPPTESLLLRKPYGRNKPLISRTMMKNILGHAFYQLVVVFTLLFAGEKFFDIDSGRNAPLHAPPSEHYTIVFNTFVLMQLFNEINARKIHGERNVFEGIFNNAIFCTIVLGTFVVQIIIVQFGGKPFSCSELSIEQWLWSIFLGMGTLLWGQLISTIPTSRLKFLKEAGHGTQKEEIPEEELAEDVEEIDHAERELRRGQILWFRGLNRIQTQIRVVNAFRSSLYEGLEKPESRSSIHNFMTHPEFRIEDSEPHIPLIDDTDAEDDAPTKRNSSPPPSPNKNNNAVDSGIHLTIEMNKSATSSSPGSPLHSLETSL

[2] = molecular target: AEA-DA lipid probe targets in Neuro2a cells (Mus musculus, UniProt Q60932); settings: Neuro2a cells, AEA-DA probe
[3] = molecular target: T2, AEA-DA lipid probe targets in Neuro2a cells (Mus musculus, UniProt Q791V5)
T2 sequence (Q791V5 1-303): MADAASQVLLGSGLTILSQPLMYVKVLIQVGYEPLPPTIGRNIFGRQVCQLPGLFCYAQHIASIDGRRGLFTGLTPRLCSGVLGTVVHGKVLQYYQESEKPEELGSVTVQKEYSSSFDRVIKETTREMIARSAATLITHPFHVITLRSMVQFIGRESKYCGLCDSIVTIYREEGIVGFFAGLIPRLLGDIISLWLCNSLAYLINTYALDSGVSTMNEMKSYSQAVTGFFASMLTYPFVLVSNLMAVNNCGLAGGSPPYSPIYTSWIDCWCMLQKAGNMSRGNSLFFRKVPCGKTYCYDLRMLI

[4] = molecular target: AEA-DA lipid probe targets in Neuro2a cells (Mus musculus, UniProt P52293)
[5] = molecular target: T3, AEA-DA lipid probe targets in Neuro2a cells (Mus musculus, UniProt Q9DBL9)
T3 sequence (Q9DBL9 1-351): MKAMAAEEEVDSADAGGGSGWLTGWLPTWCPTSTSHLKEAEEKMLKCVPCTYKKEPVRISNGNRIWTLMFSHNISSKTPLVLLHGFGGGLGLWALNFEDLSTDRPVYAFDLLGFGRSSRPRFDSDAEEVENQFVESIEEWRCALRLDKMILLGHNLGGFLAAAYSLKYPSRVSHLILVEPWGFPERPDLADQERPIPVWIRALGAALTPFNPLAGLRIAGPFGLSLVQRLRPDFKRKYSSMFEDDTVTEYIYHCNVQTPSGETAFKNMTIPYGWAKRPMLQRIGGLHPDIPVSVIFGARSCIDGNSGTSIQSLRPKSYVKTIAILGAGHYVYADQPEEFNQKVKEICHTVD

[6] = molecular target: T4, AEA-DA lipid probe targets in Neuro2a cells (Mus musculus, UniProt Q8VD00)
T4 sequence (Q8VD00 1-176): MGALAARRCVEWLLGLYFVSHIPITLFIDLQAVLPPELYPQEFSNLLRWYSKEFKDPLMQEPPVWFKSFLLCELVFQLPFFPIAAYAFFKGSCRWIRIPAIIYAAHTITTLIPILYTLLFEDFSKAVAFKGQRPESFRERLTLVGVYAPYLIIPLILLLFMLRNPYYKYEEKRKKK

[7] = molecular target: T5, AEA-DA lipid probe targets in Neuro2a cells (Mus musculus, UniProt P18572)
T5 sequence (P18572 22-389): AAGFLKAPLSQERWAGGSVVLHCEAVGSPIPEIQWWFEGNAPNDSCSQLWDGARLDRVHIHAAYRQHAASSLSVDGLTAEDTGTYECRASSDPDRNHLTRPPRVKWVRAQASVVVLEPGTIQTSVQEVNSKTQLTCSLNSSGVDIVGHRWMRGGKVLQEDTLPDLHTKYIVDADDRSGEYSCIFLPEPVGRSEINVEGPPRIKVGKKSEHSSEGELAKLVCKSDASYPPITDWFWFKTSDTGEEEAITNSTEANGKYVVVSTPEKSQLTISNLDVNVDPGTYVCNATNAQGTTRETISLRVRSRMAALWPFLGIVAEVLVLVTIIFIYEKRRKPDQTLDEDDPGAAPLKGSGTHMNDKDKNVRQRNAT

Sequence of AEA-DA lipid probe targets in Neuro2a cells (Mus musculus, UniProt Q60932) (Q60932 whole entry): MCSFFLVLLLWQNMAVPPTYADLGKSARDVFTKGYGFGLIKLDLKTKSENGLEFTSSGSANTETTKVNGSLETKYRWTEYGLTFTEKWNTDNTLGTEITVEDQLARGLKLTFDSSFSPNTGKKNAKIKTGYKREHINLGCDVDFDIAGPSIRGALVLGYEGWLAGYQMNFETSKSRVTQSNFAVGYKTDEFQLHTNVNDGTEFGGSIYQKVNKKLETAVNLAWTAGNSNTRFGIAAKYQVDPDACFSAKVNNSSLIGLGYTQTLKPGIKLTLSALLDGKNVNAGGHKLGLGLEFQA

Row | Compound | SILAC ratio Atp2b1 ([1]; competitor 25 μM) | SILAC ratio, VDAC1 (P21796) ([2]; competitor 25 μM) | SILAC ratio Mtch2 ([3]; competitor 25 μM) | SILAC ratio Kpna2 ([4]; competitor 25 μM) | SILAC ratio, Abhd5 ([5]; competitor 25 μM) | SILAC ratio, Tmem97 ([6]; competitor 25 μM) | SILAC ratio Bsg ([7]; competitor 25 μM) | also measured
1 | CCCCC/C=C\C/C=C\C/C=C\C/C=C\CCCC(=O)NCCO [AEA, anandamide, reference compound] | – | – | – | – | – | – | – | SILAC ratio Atp2b1 ([1]; competitor 200 μM): 1.6; SILAC ratio, VDAC1 (P21796) ([2]; competitor 200 μM): 1.1; SILAC ratio Mtch2 ([3]; competitor 200 μM): 1.5; SILAC ratio Kpna2 ([4]; competitor 200 μM): 1.5; SILAC ratio, Abhd5 ([5]; competitor 200 μM): 1.3; SILAC ratio, Tmem97 ([6]; competitor 200 μM): 1.8; SILAC ratio Bsg ([7]; competitor 200 μM): 1.3
2 | O=C(/C=C/c1cccnc1)NCCCCC1CCN(C(=O)c2ccccc2)CC1 [FK-866, reference compound] | 1.2 | 1.0 | 1.1 | 1.2 | 1.0 | 1.0 | 1.0 | –
3 | CN1CCN(C(=O)c2c(-c3ccccc3)c3cc([N+](=O)[O-])ccc3n2C)CC1 [KML110, (1-Methyl-5-nitro-3-phenyl-1H-indol-2-yl)(4-methylpiperazin-1-yl)methanone] | 1.8 | – | 1.3 | 1.2 | 2.0 | 1.6 | 1.3 | –
4 | CN1CCN(C(=O)c2[nH]c3ccc([N+](=O)[O-])cc3c2-c2ccccc2)CC1 [MJN228, (4-Methylpiperazin-1-yl)(5-nitro-3-phenyl-1H-indol-2-yl)methanone] | 1.4 | 1.1 | 1.3 | 1.2 | 2.2 | 1.7 | 1.6 | SILAC ratio Atp2b1 ([1]; competitor 10 μM): 1.1; SILAC ratio Atp2b1 ([1]; competitor 50 μM): 1.4; SILAC ratio Atp2b1 ([1]; competitor 100 μM): 1.7; SILAC ratio Mtch2 ([3]; competitor 10 μM): 1.2; SILAC ratio Mtch2 ([3]; competitor 50 μM): 1.1; SILAC ratio Mtch2 ([3]; competitor 100 μM): 1.4; SILAC ratio Kpna2 ([4]; competitor 10 μM): 1.3; SILAC ratio Kpna2 ([4]; competitor 50 μM): 0.9; SILAC ratio Kpna2 ([4]; competitor 100 μM): 1.3; SILAC ratio, Abhd5 ([5]; competitor 10 μM): 1.6; SILAC ratio, Abhd5 ([5]; competitor 50 μM): 4.0; SILAC ratio, Abhd5 ([5]; competitor 100 μM): 14.3; SILAC ratio, Tmem97 ([6]; competitor 10 μM): 1.4; SILAC ratio, Tmem97 ([6]; competitor 50 μM): 2.1; SILAC ratio, Tmem97 ([6]; competitor 100 μM): 3.2; SILAC ratio Bsg ([7]; competitor 10 μM): 1.4; SILAC ratio Bsg ([7]; competitor 50 μM): 1.2; SILAC ratio Bsg ([7]; competitor 100 μM): 1.6
5 | C=CCN(C)CCCCCCOc1ccc(C(=O)c2ccc(Br)cc2)c(F)c1 [Ro 48-8071, reference compound] | 1.1 | 1.0 | 0.9 | 0.9 | 1.4 | 10.0 | 1.1 | –
